Several values for one entry are separate records, joined by “and”; a condition that tells them apart may be missing. Equal values may be shown once. Read-outs that look alike come from different tables or passages of the source.
How the values were obtained:
MCF-7 = test: MTT cytotoxicity assay against breast cancer cell line MCF-7; conditions: for Cytotoxic activity class against MCF-7: class by IC50
Method: All our newly synthesized hybrids were evaluated for their in vitro anticancer activity by the standard MTT assay against a breast cancer cell line (MCF-7). MTT is a calorimetric assay which relies on the ability of live tumor cells to reduce yellow MTT (3-(4,5-dimethylthiazol-2-yl)-2,5-diphenyltetrazolium bromide) to purple formazan by mitochondrial dehydrogenases, then added DMSO to dissolve the purple formazan and quantified by measuring absorbance at a certain wavelength. The dose response curve for compounds-treated vs. untreated cells is used to quantify the amount of formazan produced to report on the effectiveness of the compounds. […] Cell line: Mammary gland breast cancer (MCF-7). The cell line was obtained from ATCC via Holding company for biological products and vaccines (VACSERA), Cairo, Egypt. […] The cell line elucidated above were used to determine the inhibitory effects of compounds on cell growth using the MTT assay. […] After incubation, the cells were treated with different concentrations of compounds and incubated for an additional 24 h. After 24 h of drug treatment, 20 µL of MTT solution at 5 mg/mL was added and incubated for 4 h. […] The relative cell viability in percentage was calculated as (A570 of treated samples/A570 of the untreated sample) × 100 [48].

Pin1 [1] = target: T1, Pin1 (Homo sapiens, UniProt Q13526); test: Pin1 inhibition assay (SensoLyte Green Pin1 Assay Kit); type: biochemical; parameters: purchased; conditions: for inhibition at 0.0001 µg/mL: conc 0.1 ng/ml; for inhibition at 0.0001 µg/mL / inhibition at 0.001 µg/mL / inhibition at 0.01 µg/mL / inhibition at 0.1 µg/mL: read-out: Pin1 %inh; for inhibition at 0.001 µg/mL: conc 1 ng/ml; for inhibition at 0.01 µg/mL: conc 10 ng/ml; for inhibition at 0.1 µg/mL: conc 100 ng/ml; for IC50: means ± SD of three experiments
T1 sequence (Q13526 whole entry): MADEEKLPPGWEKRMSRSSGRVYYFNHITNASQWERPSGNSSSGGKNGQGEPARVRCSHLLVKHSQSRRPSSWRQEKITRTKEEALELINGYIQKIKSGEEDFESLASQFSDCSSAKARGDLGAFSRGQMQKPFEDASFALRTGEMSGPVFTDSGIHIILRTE
Method: The ability of the synthesized compounds to inhibit the Pin1 activity was evaluated using the SensoLyte® Green Pin1 Assay Kit. This assay is based on using a fluorogenic substrate which was pretreated to convert it into the cis isomer. Pin1 can change this substrate into the trans isomer that is easily cleaved to generate a fluorescent signal.

[2] = In vitro cytotoxicity against normal Human lung fibroblast (WI38) cell line; type: cell-based; conditions: human, WI38 normal lung fibroblast cells
Pin1 [3] = target: T1, Pin1; test: 2D 15N-1H HSQC NMR binding to 15N-labeled Pin1; parameters: Backbone and side-chain chemical shift assignments of full-length, apo, human Pin1; made in house; conditions: Pin1 200 µM, compound 1 mM, 5% DMSO
Description: Herein, ^15N-labeled Pin1 enzyme is used where we recorded HSQC spectra of the protein alone and in the presence of an excess amount of one of the newly synthesized compounds. The main challenge we faced in our research was the compound solubility in a balanced mixture of the protein aqueous buffer. Although our compound was freely soluble in DMSO, it is inapplicable to use pure DMSO to dissolve the protein because this will result in protein denaturation and probably aggregation. Therefore, only one compound was tested where we were able to dissolve it partially in a mixture of 95% buffer and 5% DMSO. In addition, as a control, the spectrum was recorded only in presence of DMSO and compared to the ones with the ligand. The proportion of Pin1 to the compounds was adjusted to be […]. […] Chemical shift perturbation and peak shifting are indicative of fast exchange between free and bound states which results in peak positions averaging. […] This peak disappearing indicated exchange on the μs–ms time scale (Figure 1). Furthermore, our NMR results have been verified using cell lines.
The expression and purification of ^15N-labeled Pin1 was performed according to the known protocol. The enzyme sample reached a final concentration of 200 µM in PBS buffer at pH = 6.5. Compound number 12 was dissolved in DMSO and added to the protein to achieve a final concentration of 1 mM in the NMR tube. […]

Pin1's PPIase activity = target: Pin1's PPIase activity; parameters: method as in PMID 19969456; conditions: read-out: IC50 of Pin1's PPIase activity inhibition; cited from earlier work
[4] = Homo sapiens, MCF7, 24 h, read-out: In Vitro Cytotoxicity IC50 MCF-7, MTT assay, 24 h treatment
[5] = Homo sapiens, MCF7, read-out: IC50 against breast cancer cell line (MCF-7), MTT assay, section 2.2

| Compound | melting point [°C] | IC50 (MCF-7; [4]) [µM] | Cytotoxic activity class against MCF-7 (MCF-7) | also measured |
| --- | --- | --- | --- | --- |
| 2-(4-Bromophenyl)-7,8-dichlorobenzo[4,5]imidazo[1,2-a]pyridin-4-ol [Compound 14] |  |  |  | IC50 (MCF-7): 46 ± 2.9 µM |
| CC(O)c1nc2cc(Cl)c(Cl)cc2[nH]1 (stereo not shown) [Compound 2] |  |  |  | inhibition at 0.0001 µg/mL (Pin1 [1]): 39.2%; inhibition at 0.001 µg/mL (Pin1 [1]): 51.1%; inhibition at 0.01 µg/mL (Pin1 [1]): 67%; inhibition at 0.1 µg/mL (Pin1 [1]): 85.2% |
| CN(C)c1ccc(/C=C/C(=O)c2nc3cc(Cl)c(Cl)cc3[nH]2)cc1 [Compound 4, (E)-1-(5,6-Dichloro-1H-benzo[d]imidazol-2-yl)-3-(4-(dimethylamino)phenyl)prop-2-en-1-one] | 258 to 260 | 26.9 | moderate (21–50 (moderate)) | IC50 (MCF-7; read-out: In Vitro Cytotoxicity IC50 MCF-7, MTT assay, 24 h treatment): 26.8 ± 2.1 µM |
| CN(C)c1ccc(C2=NN=C(c3nc4cc(Cl)c(Cl)cc4[nH]3)C2)cc1 [Compound 5, 4-(5-(5,6-Dichloro-1H-benzo[d]imidazol-2-yl)-4H-pyrazol-3-yl)-N,N-dimethylaniline] | 216 | 11.7 ± 0.9 | strong (11–20 (strong)) | IC50 (Pin1 [1]): 0.00064 ± 3e-05 µM; IC50 at 24 h [2]: 67.9 ± 3.6 µM; IC50 (MCF-7; [5]): 11.8 µM |
| CN(C)c1ccc(-c2cc(-c3nc4cc(Cl)c(Cl)cc4[nH]3)nc(N)c2C#N)cc1 [Compound 6, 2-Amino-6-(5,6-dichloro-1H-benzo[d]imidazol-2-yl)-4-(4-(dimethylamino)phenyl)nicotinonitrile] | 168 to 170 | 15.4 ± 1.3 | strong (11–20 (strong)) | IC50 (MCF-7; [5]): 15.5 µM |
| CN(C)c1ccc(C2C=C(c3nc4cc(Cl)c(Cl)cc4[nH]3)OC(N)=C2C#N)cc1 (stereo not shown) [Compound 7, 2-Amino-6-(5,6-dichloro-1H-benzo[d]imidazol-2-yl)-4-(4-(dimethylamino)phenyl)-4H-pyran-3-carbonitrile] | 150 | 21 ± 1.8 | moderate (21–50 (moderate)) |  |
| CC(=O)c1nc2cc(Cl)c(Cl)cc2n1CC(=O)c1ccc(Br)cc1 [Compound 9, 2-(2-Acetyl-5,6-dichloro-1H-benzo[d]imidazol-1-yl)-1-(4-bromophenyl)ethan-1-one] | 322 | 63.9 ± 3.4 |  | inhibition at 0.0001 µg/mL (Pin1 [1]): 34.7%; inhibition at 0.001 µg/mL (Pin1 [1]): 42.2%; inhibition at 0.01 µg/mL (Pin1 [1]): 69.5%; inhibition at 0.1 µg/mL (Pin1 [1]): 87.5% |
| C=C1c2nc3cc(Cl)c(Cl)cc3n2C=C(c2ccc(Br)cc2)N1c1ccc(C)cc1 [Compound 10, 3-(4-Bromophenyl)-7,8-dichloro-1-methylene-2-(p-tolyl)-1,2-dihydrobenzo[4,5]imidazo[1,2-a]pyrazine] | 211 | 53 ± 3.1 | weak (51–100 (weak)) |  |
| C=C1c2nc3cc(Cl)c(Cl)cc3n2C=C(c2ccc(Br)cc2)N1c1ccccc1C [Compound 11, 3-(4-Bromophenyl)-7,8-dichloro-1-methylene-2-(o-tolyl)-1,2-dihydrobenzo[4,5]imidazo[1,2-a]pyrazine] | 106 | 38 ± 2.7 | moderate (21–50 (moderate)) |  |
| C=C1c2nc3cc(Cl)c(Cl)cc3n2C=C(c2ccc(Br)cc2)N1Cc1ccccc1 [Compound 12, 2-Benzyl-3-(4-bromophenyl)-7,8-dichloro-1-methylene-1,2-dihydrobenzo[4,5]imidazo[1,2-a]pyrazine] | 85 | 31.3 ± 2.5 | moderate (21–50 (moderate)) | IC50 (Pin1 [1]): 0.00111 µM and 0.0011 µM; IC50 at 24 h [2]: 45.7 ± 2.8 µM; Binding to Pin1 by HSQC spectra overlay (Pin1 [3]): chemical shift perturbation and peak disappearance |
| Cc1nc(-c2ccc(Br)cc2)cn2c1nc1cc(Cl)c(Cl)cc12 [Compound 13, 3-(4-Bromophenyl)-7,8-dichloro-1-methylbenzo[4,5]imidazo[1,2-a]pyrazine] | 290 | 71.8 ± 3.8 | weak (51–100 (weak)) | IC50 (MCF-7; [5]): 71.9 µM |
| O=C(O)c1cc2ccccc2[nH]1 [Indole-2-carboxylic acid (I), Indole-2-carboxylic acid] |  |  |  | IC50 (Pin1's PPIase activity): 16 µM |
| Tannic acid [reference compound] |  |  |  | IC50 (Pin1 [1]): 0.000535 µM and 0.00053 µM |

From publication PMC9414874, “New Benzimidazoles Targeting Breast Cancer: Synthesis, Pin1 Inhibition, 2D NMR Binding, and Computational Studies” (Molecules, 2022)
